Experimental data taken from patent US20240115554A1, “METHODS FOR TREATING OBSTRUCTIVE HYPERTROPHIC CARDIOMYOPATHY” (Cytokinetics, Incorporated, priority 2022, published 2024).
“Also recorded” adds a separate entry of the source.

What was measured:
[1] = tested on: healthy adults; conditions: in vivo
Text: Study Overview and Ethics. The study used a randomized, placebo-controlled, single-ascending dose (SAD) and multiple-ascending dose (MAD) design (FIG. 2). […] Dose escalation was to be stopped when this range was achieved, or when a non-tolerated dose was identified, if earlier.
Single-ascending dose (SAD) cohorts. The SAD portion of the study used a randomized, double-blind, placebo-controlled, sequential, escalating-dose design, in which participants received single-ascending oral doses of the study drug. Seven cohorts were dosed in sequence (FIG. 2).
Recommendations regarding dose escalation in the SAD cohorts—and in the MAD cohorts described below—were made by the treating investigator (who was blinded to treatment group) and endorsed or not by the Dose Level Review Committee (DLRC), who were unblinded. […] Criteria for escalation included that no more than 2 participants in a dose group developed an LVEF <50% and no individual developed an LVEF <45%.
Multiple-ascending dose (MAD) cohorts. The MAD cohorts also used a randomized, double-blind, placebo-controlled, sequential design.
Safety and tolerability. Safety was assessed by the incidence of adverse events (AEs) and by incidence of reduced LVEF. Treatment-emergent AEs (TEAE) were defined as AEs that began or increased after study drug administration. All AEs were coded using the Medical Dictionary for Regulatory Activities version 21.1 and graded using the National Cancer Institute Common Terminology Criteria for AEs (version 4.03) 5-point severity scale. Each AE was judged as either related or unrelated to the study drug by the treating investigator. Clinical laboratory tests were obtained at regular intervals in all cohorts.
For safety monitoring, participants in all cohorts had periodic echocardiograms, which were assessed by a cardiologist. In the SAD and MAD cohorts, echocardiograms were also reviewed by an echocardiography core laboratory for PD assessments, as described below. In addition, participants in all cohorts were monitored with continuous 12-lead ECG recording using Holter monitors. For safety monitoring, a single 12-lead ECG was extracted at screening, pre-dose, and periodically throughout follow-up, and interpreted by the investigator. In the SAD, MAD, and CYP2D6-PM cohorts, cardiodynamic ECGs (triplicate 10-second, 12-lead ECG recordings) were obtained prior to the corresponding PK blood and ECG intervals quantitated by qualified readers.

[2] = Phase 1 plasma aficamten pharmacokinetics (SAD, MAD, CYP2D6-PM, food-effect cohorts); format: in vivo, human; conditions: for CL/F: mean ± SD
Method: CYP2D6 poor metabolizer cohort.
CYP2D6 genotypes were determined at screening for all study participants; those identified as CYP2D6-PMs were excluded from the SAD and MAD cohorts but were invited to participate in the CYP2D6-PM cohort. The first individual in the CYP2D6-PM cohort was dosed after the SAD 25-mg cohort (FIG. 2). […] Nine participants were randomized (7:2) with a sentinel dosing group consisting of the first 2 participants treated.
Food-effect cohort. […] Participants were randomized in a 1:1 ratio to 1 of 2 sequences: fasted/fed or fed/fasted.
Pharmacokinetic analyses. For all study groups, blood samples for PK assessment were obtained pre-dose, up to 12 times daily on day 1, and then at regular intervals throughout the study. Blood samples were collected according to the following schedule: SAD Cohorts: Day 1: pre-dose and 0.25, 0.5, 1, 1.5, 2, 2.5, 3, 4, 6, 8, 12, 16, 24, 36, 48, 72, 96, and 216 h post dose. […] CYPD6-PM Cohort: Day 1: pre-dose and 0.25, 0.5, 1, 1.5, 2, 2.5, 3, 4, 6, 8, 12, 16, 24, 36, 48, 72, 96, 216, 312, and 552 h post dose. Food-Effect Cohort: Day 1: pre-dose and 0.25, 0.5, 1, 1.5, 2, 2.5, 3, 4, 6, 8, 12, 16, 24, 36, 48, 72, 96, 144, and 216 h post dose. Standard non-compartmental methods were used to calculate PK parameters using Phoenix® WinNonlin® Version 7.0; actual sample collection times were utilized.
For the MAD cohort, the parameters were AUC24 and Cmax on day 1, plus AUC to the […] (AUCtau) and Cmax on day 14 or 17. The statistical linear relationship between the ln-transformed PK parameters and the ln-transformed dose was verified by including the quadratic (ln Dose)^2 and cubic (ln Dose)^3 effects. […] The dose-proportionality analysis was performed using SAS® PROC MIXED.
An analysis of variance (ANOVA) model was conducted separately for each dose level; day was included as the fixed effect. Helmert contrasts were developed such that each time-point was compared with the mean of the subsequent time-points.

[3] = tested on: patients with symptomatic oHCM; assay: Open-label extension: background therapy reduction/withdrawal (BTR/W); format: in vivo, human
Method: Patients were dosed following the protocol of Example 3a or Example 3b. Patients were classified as receiving SoC therapy (both first line and second line) if treated with at least one beta-blocker (BB), non-dihydropyridine calcium channel blocker (CCB), or disopyramide. […] Successful BTR/W was defined as at least a dose-reduction of one medication to ≤50% of baseline. Serial metrics were collected per protocol but side effects specifically related to SoC therapy were not.

[4] = tested on: patients with symptomatic oHCM; assay: Open-label extension: global longitudinal strain (GLS) by echocardiography; format: in vivo, human; conditions: baseline −13.9%±3.2
Method: GLS analysis was performed using a vendor-neutral analysis package (TOMTEC® Imaging Systems).

SMILES: CCc1nc(-c2ccc3c(c2)CC[C@H]3NC(=O)c2cnn(C)c2)no1 [aficamten, (R)—N-(5-(5-ethyl-1,2,4-oxadiazol-3-yl)-2,3-dihydro-1H-inden-1-yl)-1-methyl-1H-pyrazole-4-carboxamide]
- participants with echocardiogram-related AEs of decreased ejection fraction <45% ([1]; human): 3 participants
- overall safety and tolerability [1]: safe and well tolerated
- post-dose LVEF of 1 participant with LVEF <50% [1]: 46.2%
- serum chemistry, hematology, urinalysis findings [1]: No clinically significant serum chemistry, hematology, or urinalysis findings
- impact of food and CYP2D6-PM phenotype on pharmacokinetics ([2]; 10 mg single dose): Neither food nor CYP2D6-PM phenotype had a clinically meaningful impact on pharmacokinetics
- steady state achieved by the end of day ([2]; 5-mg and 7.5-mg doses once daily): 12 days
- steady state achieved by the end of day ([2]; 10-mg dose once daily): 10 days
- CL/F ([2]; CYP2D6 Poor Metabolizers, 10 mg single dose): 3.6 ± 1.4 L/h
- maximum time to maximum observed concentration across all participants ([2]; SAD cohorts): 4.0 h
- increase of Cmax when taken with food ([2]; food-effect cohort, 10 mg): approximately 30%
- CL/F ([2]; food-effect cohort, 10 mg, Fasted (n = 4)): 2.8 ± 0.6 L/h
- CL/F ([2]; food-effect cohort, 10 mg, Fed (n = 7)): 3.1 ± 0.9 L/h
- time within which steady state is achieved ([2]; once-daily dosing): ≤ 2 weeks
- CL/F ([2]; single oral dose 3 mg): 4.2 ± 3.1 L/h
- CL/F ([2]; single oral dose 10 mg): 3.0 ± 0.7 L/h
- CL/F ([2]; single oral dose 25 mg): 3.6 ± 0.5 L/h
- CL/F ([2]; single oral dose 40 mg): 3.4 ± 0.6 L/h
- CL/F ([2]; single oral dose 50 mg): 3.8 ± 1.1 L/h
- dose proportionality of plasma concentrations / exposure ([2]; single oral doses 1 mg to 50 mg): increased in a dose-proportional manner; also recorded: linear kinetics
- patients achieving any successful BTR/W among those attempted ([3]; 17 of 20 patients with attempted BTR/W): 85%
- patients who completely discontinued at least one SoC medication ([3]; BTR/W): 10 patients
- patients who withdrew from all SoC (aficamten monotherapy) ([3]; BTR/W): 5 patients
- NT-pro B-type Natriuretic Peptide ([3]; post-BTR/W): 532 ± 934 pg/mL
- high-sensitivity troponin I ([3]; post-BTR/W): 5.1 ± 1.6 ng/L
- mean HR after BTR/W ([3]; post-BTR/W (N=14)): 74±10 bpm
- mean Valsalva LVOT-G after BTR/W ([3]; post-BTR/W (N=14)): 42±26 mmHg
- increase in Valsalva LVOT-G after BTR/W ([3]; pre- vs post-BTR/W (N=14)): 15 mmHg
- increase in resting HR after BTR/W ([3]; pre- vs post-BTR/W (N=14)): 12 bpm
- NT-pro B-type Natriuretic Peptide ([3]; pre-BTR/W): 321 ± 424 pg/mL
- high-sensitivity troponin I ([3]; pre-BTR/W): 4.8 ± 1.8 ng/L
- patients with unsuccessful attempted BTR/W ([3]; reinstitution of BB): 3 patients
- GLS ([4]; week 12 (n=27)): −14.3±3.0%
- GLS ([4]; week 36-48 (n=27)): −14.9%
